Measurements reported in article PMC2748416 (Biochemistry, 2009).
Like-named read-outs stand apart in the source and are kept apart here.

How the values were obtained:
MshC W227F mutant [1] = biological target: T1, MshC W227F mutant (Mycolicibacterium smegmatis, UniProt A0QZY0, W227F); test: Pre-steady state kinetics of cysteine adenylation; format: biochemical, Mycobacterium smegmatis
MshC W227F mutant [2] = biological target: T1, MshC W227F mutant
MshC D251A mutant [3] = biological target: T2, MshC D251A mutant (Mycolicibacterium smegmatis, UniProt A0QZY0, D251A)
WT MshC [4] = biological target: T3, WT MshC (Mycolicibacterium smegmatis, UniProt A0QZY0); test: Pre-steady state kinetics of cysteine adenylation; format: biochemical, Mycobacterium smegmatis
T3 sequence (A0QZY0 1-412): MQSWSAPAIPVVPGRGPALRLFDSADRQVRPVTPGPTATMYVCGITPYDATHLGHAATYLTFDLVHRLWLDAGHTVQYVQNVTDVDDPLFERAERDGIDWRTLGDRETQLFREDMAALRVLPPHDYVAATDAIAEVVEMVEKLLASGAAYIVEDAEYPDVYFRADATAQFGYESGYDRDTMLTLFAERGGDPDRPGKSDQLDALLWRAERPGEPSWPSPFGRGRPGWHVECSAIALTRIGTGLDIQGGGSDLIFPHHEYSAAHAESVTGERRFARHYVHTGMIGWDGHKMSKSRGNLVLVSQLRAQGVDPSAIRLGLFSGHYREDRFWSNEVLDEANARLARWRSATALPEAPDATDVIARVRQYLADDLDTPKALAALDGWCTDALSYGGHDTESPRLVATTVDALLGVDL

MshC T46V mutant [5] = biological target: T4, MshC T46V mutant (Mycolicibacterium smegmatis, UniProt A0QZY0, T46V)
MshC T83V mutant = MshC T83V mutant (Mycolicibacterium smegmatis, UniProt A0QZY0, T83V); format: biochemical, Mycobacterium smegmatis
MshC H55A mutant [6] = biological target: T5, MshC H55A mutant (Mycolicibacterium smegmatis, UniProt A0QZY0, H55A); details: for Km: steady state, pH 7.8, 25 °C
MshC W227H mutant [7] = biological target: T6, MshC W227H mutant (Mycolicibacterium smegmatis, UniProt A0QZY0, W227H)
MshC D251N mutant [8] = biological target: T7, MshC D251N mutant (Mycolicibacterium smegmatis, UniProt A0QZY0, D251N)
MshC T46V mutant [9] = biological target: T4, MshC T46V mutant; test: Pre-steady state kinetics of cysteine adenylation; format: biochemical, Mycobacterium smegmatis
WT MshC [10] = biological target: T3, WT MshC; test: Coupled spectrophotometric enzyme assay; format: biochemical, Mycobacterium smegmatis; details: for Km: steady state, pH 7.8, 25 °C
WT MshC [11] = biological target: T3, WT MshC; test: Effect of added imidazole on enzyme activity; format: biochemical, Mycobacterium smegmatis
MshC H55A = MshC H55A (Mycolicibacterium smegmatis, UniProt A0QZY0, H55A); test: Chemical rescue of enzyme activity by exogenous imidazole; format: biochemical, Mycobacterium smegmatis
MshC D251A mutant [12] = biological target: T2, MshC D251A mutant; test: Tryptophan fluorescence titration of inhibitor binding; design: species or system Mycobacterium smegmatis; details: fluorescence method, 0.1 μM protein, pH 7.8, 25 °C
MshC H55A mutant [13] = biological target: T5, MshC H55A mutant; test: as above; design: species or system Mycobacterium smegmatis; details: fluorescence method, 0.1 μM protein, pH 7.8, 25 °C
WT MshC [14] = biological target: T3, WT MshC; test: as above; design: species or system Mycobacterium smegmatis; details: fluorescence method, 0.1 μM protein, pH 7.8, 25 °C
MshC D251N mutant [15] = biological target: T7, MshC D251N mutant; test: as above; design: species or system Mycobacterium smegmatis; details: fluorescence method, 0.1 μM protein, pH 7.8, 25 °C
MshC W227F mutant [16] = biological target: T1, MshC W227F mutant; test: as above; design: species or system Mycobacterium smegmatis; details: fluorescence method, 0.1 μM protein, pH 7.8, 25 °C
MshC W227H mutant [17] = biological target: T6, MshC W227H mutant; test: as above; design: species or system Mycobacterium smegmatis; details: fluorescence method, 0.1 μM protein, pH 7.8, 25 °C
MshC T46V mutant [18] = biological target: T4, MshC T46V mutant; test: as above; design: species or system Mycobacterium smegmatis; details: fluorescence method, 0.1 μM protein, pH 7.8, 25 °C
MshC D251N mutant [19] = biological target: T7, MshC D251N mutant; test: Pre-steady state kinetics of cysteine adenylation; format: biochemical, Mycobacterium smegmatis; details: read-out: Kd-ATP; first half reaction, fit to eq 9
MshC H55A mutant [20] = biological target: T5, MshC H55A mutant; test: Pre-steady state kinetics of cysteine adenylation; format: biochemical, Mycobacterium smegmatis; details: read-out: Kd-ATP; first half reaction, fit to eq 9
WT MshC [21] = biological target: T3, WT MshC; details: up to 10 mM ATP; cited from earlier work
[22] = read-out: Km-cys, steady state, pH 7.8, 25 °C
[23] = read-out: Km-GlcN-Ins, at fixed saturating concentrations of ATP and cysteine
[24] = read-out: Km-ATP, steady state, pH 7.8, 25 °C

## N[C@@H](CS)C(=O)O [cys, L-cysteine]
MshC W227F mutant [1]
  Kd: 600 ± 100 µM
MshC W227F mutant [2]; [22]
  Km: 400 ± 100 µM
MshC D251A mutant [3]; [22]
  Km: 170 ± 20 µM
WT MshC [4]
  Kd: 160 ± 30 µM
MshC T46V mutant [5]; [22]
  Km: 1900 ± 200 µM
MshC T83V mutant; [22]
  Km: 20 ± 1 µM
MshC H55A mutant [6]; read-out: Km-cys
  Km: 1100 ± 200 µM
MshC W227H mutant [7]; [22]
  Km: 120 ± 40 µM
MshC D251N mutant [8]; [22]
  Km: 480 ± 150 µM
MshC T46V mutant [9]
  Kd: 800 ± 100 µM

## N[C@@H](CO)C(=O)O [serine]
WT MshC [10]; tested up to 5 mM
  activity as substrate: no activity

## c1c[nH]cn1 [imidazole]
WT MshC [11]
  effect of added imidazole on enzyme activity: No significant activating or inhibitory effect
MshC H55A; 100 mM added imidazole, pH 6.75
  increase of kcat value: seven-fold increase
MshC H55A; pH 7.8 and pH 9
  change in enzyme activity upon addition of imidazole: no changes

## N[C@H]1[C@@H](OC2[C@H](O)[C@H](O)C(O)[C@H](O)[C@H]2O)O[C@H](CO)[C@@H](O)[C@@H]1O (stereo partly shown) [GlcN-Ins, glucosamine-inositol]
MshC W227F mutant [2]; [23]
  Km: 150 ± 60 µM
MshC D251A mutant [3]; [23]
  Km: 160 ± 10 µM
WT MshC [10]; read-out: Km-GlcN-Ins
  Km: 160 ± 50 µM
MshC T46V mutant [5]; [23]
  Km: 150 ± 80 µM
MshC T83V mutant; [23]
  Km: 170 ± 50 µM
MshC W227H mutant [7]; [23]
  Km: 600 ± 10 µM
MshC D251N mutant [8]; [23]
  Km: 100 ± 60 µM

## Nc1ncnc2c1ncn2[C@@H]1O[C@H](COS(=O)(=O)NC(=O)[C@@H](N)CS)[C@@H](O)[C@H]1O [CSA, 5'-O-[N-(L-cysteinyl)-sulfamonyl]adenosine, reference compound]
MshC W227F mutant [2]
  Ki: 0.056 ± 0.008 µM
MshC D251A mutant [3]
  Ki: 0.93 ± 0.17 µM
MshC D251A mutant [12]
  Kd: 0.34 ± 0.01 µM
WT MshC [10]
  Ki: 0.304 ± 0.04 µM
MshC T46V mutant [5]
  Ki: 0.36 ± 0.047 µM
MshC H55A mutant [13]
  Kd: 0.35 ± 0.02 µM
WT MshC [14]
  Kd: 0.11 ± 0.01 µM
MshC H55A mutant [6]
  Ki: 0.89 ± 0.06 µM
MshC D251N mutant [15]
  Kd: 0.18 ± 0.013 µM
MshC W227H mutant [7]
  Ki: 0.03 ± 0.005 µM
MshC D251N mutant [8]
  Ki: 0.52 ± 0.11 µM
MshC W227F mutant [16]
  Kd: 0.053 ± 0.01 µM
MshC W227H mutant [17]
  Kd: 0.045 ± 0.002 µM
MshC T46V mutant [18]
  Kd: 0.15 ± 0.01 µM

## Nc1ncnc2c1ncn2[C@@H]1O[C@H](COP(=O)(O)OP(=O)(O)OP(=O)(O)O)[C@@H](O)[C@H]1O [ATP]
MshC W227F mutant [2]; [24]
  Km: 200 ± 50 µM
MshC D251A mutant [3]; 2 mM cysteine, 200 μM GlcN-Ins
  ATP concentration above which enzyme activity decreases: ~ 1.1 mM
MshC D251A mutant [3]; [24]
  Km: 360 ± 11 µM
WT MshC [10]; read-out: Km-ATP
  Km: 1800 ± 100 µM
WT MshC [4]; read-out: Kd-ATP, first half reaction, fit to eq 9
  Kd: 1700 ± 200 µM
MshC D251N mutant [19]
  Kd: 10200 ± 2800 µM
MshC T46V mutant [5]; [24]
  Km: 1100 ± 30 µM
MshC T83V mutant; [24]
  Km: 320 ± 60 µM
MshC H55A mutant [6]; read-out: Km-ATP
  Km: 5200 ± 100 µM
MshC W227H mutant [7]; [24]
  Km: 120 ± 10 µM
MshC D251N mutant [8]; [24]
  Km: 8900 ± 1600 µM
MshC D251N mutant [8]; up to 20 mM ATP
  substrate inhibition: not observed
MshC H55A mutant [20]
  Kd: 15000 ± 3000 µM
WT MshC [21]
  substrate inhibition: no substrate inhibition
